Laboratory results taken from US8399506B2, “Combinations of 4 bromo-2-(4-chlorophenyl)-5-(trifluoromethyl)-1H-pyrrole-3-carbonitrile and oxidizing agents” (Janssen Pharmaceutica, NV, priority 2006, dated 2013).
Like-named read-outs stand apart in the source and are kept apart here.

How the values were obtained:
[1] = tested on: Anabaena cylindrica CCAP 1403/2A; assay: Experiment 2 poison plate assay, algae species (2); type: cell-based; details: 24-well plates, BG 11 medium, after 3 weeks of exposure, total active ingredient, ratio (I) to (II) in label
Method: (§1) Synergism between component (I) and one of the components (II) was determined by a commonly used and accepted method described by Kull F. C. et al. in Applied Microbiology, 9, 538-541 (1961) using the Synergy Index, which is calculated as follows for two compounds A and B:
(§2) [formula] wherein: • QA is the concentration of compound A in ppm, acting alone, which produced an end point (e.g. MIC), • Qa is the concentration of compound A in ppm, in the mixture, which produced an end point (e.g. MIC), • QB is the concentration of compound B in ppm, acting alone, which produced an end point (e.g. MIC), • Qb is the concentration of compound B in ppm, in the mixture, which produced an end point (e.g. MIC).
(§3) MIC is the minimum inhibitory concentration, i.e. the lowest concentration of each test compound or mixture of test compounds sufficient to inhibit visible growth.
(§4) When the Synergy Index is greater than 1.0, antagonism is indicated. When the SI is equal to 1.0, additivity is indicated.
(§5) Synergism between component (I) and one of the components (II) was determined using the Synergy Index as outlined above in Experiment 1.

[2] = tested on: Artemia salina (EG Artemia Cysts, Great Salt Lake strain); assay: Experiment 1 poison plate assay, Artemia salina larvae; type: in vivo; details: Artemia salina larvae (24 hours old), artificial seawater; after 24 hours of exposure; total active ingredient; ratio (I) to (II) in label
Method: as §1, §2, §3, §4

[3] = tested on: Chlamydomonas sphagnophila CCAP 11/36E; assay: Experiment 1 poison plate assay, algae species (3); type: cell-based; details: 24-well plates, BG 11 medium, after 3 weeks of exposure, total active ingredient, ratio (I) to (II) in label
Method: as §1, §2, §3, §4

[4] = tested on: Anabaena cylindrica CCAP 1403/2A; assay: Experiment 1 poison plate assay, algae species (2); type: cell-based; details: for MIC-values in ppm: 24-well plates, BG 11 medium, after 3 weeks of exposure, total active ingredient, ratio (I) to (II) in label
Method: as §1, §2, §3, §4

[5] = tested on: Chlorella vulgaris CCAP 211/12; assay: Experiment 2 poison plate assay, algae species (1); type: cell-based; details: 24-well plates, BG 11 medium, after 3 weeks of exposure, total active ingredient, ratio (I) to (II) in label
Method: as §1, §2, §3, §4, §5

Tribonema sp. CCAP 880/2 = assay: Experiment 2 poison plate assay, algae species (4); type: cell-based
Method: as §1, §2, §3, §4, §5

[6] = buffer

potassium nitrosodisulfonate [(II-g)] showed an MIC-values in ppm [1] of 80.0 ppm.
`[Na+].[O-]Cl` [(II-b), sodium hypochlorite] showed an MIC-values in ppm [2] of 200.00 ppm, an MIC-values in ppm [3] of 107.0 ppm and an MIC-values in ppm [4] of 33.8 ppm.
For `O=S(=O)([O-])OOS(=O)(=O)[O-].[K+].[K+]` [(II-d), potassium peroxydisulfate], the MIC-values in ppm [5] was 60.0 ppm.
Work on `[K+].[K+].[O-][O-]` [(II-f), potassium peroxide] yielded an MIC-values in ppm [1] of 10.7 ppm.
With `OO` [(II-a), hydrogen peroxide] the MIC-values in ppm [3] was 45.0 ppm and the MIC-values in ppm [4] was 25.3 ppm.
`[O][Cl+][O-]` [(II-c), chlorine dioxide] showed an MIC-values in ppm [5] of 9.49 ppm.
potassium superoxide [(II-e)] gave an MIC-values in ppm [1] of 45.0 ppm.
For potassium (VI) ferrate [(II-h)], the MIC-values in ppm (Tribonema sp. CCAP 880/2; Tribonema sp., 24-well plates, BG 11 medium, after 3 weeks of exposure, total active ingredient, ratio (I) to (II) in label) was 80.0 ppm.
In the case of `N#Cc1c(-c2ccc(Cl)cc2)[nH]c(C(F)(F)F)c1Br` [(I), 4-bromo-2-(4-chlorophenyl)-5-(trifluoromethyl)-1H-pyrrole-3-carbonitrile], the MIC-values in ppm [2] is reported as 0.13 ppm, the MIC-values in ppm [3] is reported as 107.0 ppm and the half-life [6] is reported as “a couple of days”. The half-life ([6]; pH 8.3) was “a few hours”, the MIC ([4]; CCAP1403/2A, 504 h, read-out: MIC-values in ppm) was 107 µg/mL and the MIC-values in ppm [5] was 107.0 ppm. The MIC (Tribonema sp. CCAP 880/2; 504 h, read-out: MIC-values in ppm) was 107 µg/mL, the MIC-values in ppm ([1]; listed as (I) + (II-e) 100 + 0) was 19 ppm and the MIC-values in ppm ([1]; listed as (I) + (II-f) 100 + 0) was 25.3 ppm. For the same molecule, the MIC-values in ppm ([1]; listed as (I) + (II-g) 100 + 0) was 6.00 ppm.
